Several values for one entry are separate records, joined by “and”; a condition that tells them apart may be missing. Identical values can stand only once. Like-named read-outs stand apart in the source and are kept apart here.

The target in one experiment is CDK7/cyclinH1/MNAT1 (Homo sapiens, UniProt P50613). The experiment in a line: Inhibition of CDK-7 enzymatic activity (p33 ATP radiometric assay).
Another experiment addresses CDK7/CycH/MAT1 (Homo sapiens, UniProt P50613). The experiment can be described thus: In vitro irreversible dialysis assay. The settings on record: 700 nM compound pre-incubated 2 h with 50 nM enzyme, dialyzed 24 h at RT. Type of experiment: biochemical. Here is the method: 700 nM CY-16-1 compound was pre-incubated with 50 nM CDK7/CycH/MAT1 enzyme for 2 h in a buffer comprising: 100 mM HEPES pH7.5, 0.1% BSA, 5 mM MgCl2, 1 mM DTT, 0.01% Triton X-100 and dialyzed at RT against the same buffer for a total time of 24 h (3 changes of the dialysis buffer, nominal cumulative dialysis factor: 30,000). Control samples included: DMSO+50 nM CDK7 dialyzed in the identical manner Un-dialyzed samples with compound were assembled and incubated for 24 h at RT. Following dialysis, the CDK7 activity was measured in real-time format in the presence of 100 uM ATP and 1 uM substrate peptide. Initial velocity was determined in the samples.

For another experiment, the target named is T1, CDK7 (Homo sapiens, UniProt P50613).
T1 construct: made in house; host or cells: E. coli BL21-derived host (T7 phage) or HEK-293
The experiment can be described thus: KINOMEscan CDK7 binding constant (Kd) determination. The settings on record: KINOMEscan competition binding, 11-point 3-fold dilution.

In the next experiment the test system is DMS 114. The experiment can be described thus: In vitro anti-proliferation assay (ATPlite). The settings on record: SCLC cell line DMS 114, about 72 hours, read-out: anti-proliferative IC50. Type of experiment: cell-based. Here is the method:
(§1) Cell antiproliferation is assayed by PerkinElmer ATPlite™ Luminescence Assay System. Briefly, the various test cancer cell lines are plated at a density of about 1×10^4 cells per well in Costar 96-well plates, and are incubated with different concentrations of compounds for about 72 hours in medium supplemented with 5% FBS. One lyophilized substrate solution vial is then reconstituted by adding 5 mL of substrate buffer solution, and is agitated gently until the solution is homogeneous. About 50 μL of mammalian cell lysis solution is added to 100 μL of cell suspension per well of a microplate, and the plate is shaken for about five minutes in an orbital shaker at ˜700 rpm. This procedure is used to lyse the cells and to stabilize the ATP. Next, 50 μL substrate solution is added to the wells and microplate is shaken for five minutes in an orbital shaker at ˜700 rpm. Finally, the luminescence is measured by a PerkinElmer TopCount® Microplate Scintillation Counter.
(§2) As shown in the following table, the CY-16-1 has potent anticancer activity in small cell lung cancer (SCLC) cell lines. Cisplatin, the first line treatment of SCLC, was used as a reference drug in this assay: […]

The test system of another experiment is NCI-H446. The experiment can be described thus: In vitro anti-proliferation assay (ATPlite). Type of experiment: cell-based. Conditions: SCLC cell line NCI-H446, about 72 hours, read-out: anti-proliferative IC50. Here is the method: as §1, §2
Another experiment deals with NCI-H209. The experiment in a line: In vitro anti-proliferation assay (ATPlite). It counts as cell-based. Conditions: SCLC cell line NCI-H209, about 72 hours, read-out: anti-proliferative IC50. Here is the method: as §1, §2
A further experiment concerns NCI-H82. The experiment in a line: In vitro anti-proliferation assay (ATPlite). Type of experiment: cell-based. The settings on record: SCLC cell line NCI-H82, about 72 hours, read-out: anti-proliferative IC50. As for the experimental part:
as §1, §2

Another experiment relates to NCI-H69. The experiment can be described thus: In vitro anti-proliferation assay (ATPlite). Type of experiment: cell-based. The settings on record: SCLC cell line NCI-H69, about 72 hours, read-out: anti-proliferative IC50. Here is the method: as §1, §2

T1 sequence (P50613 whole entry): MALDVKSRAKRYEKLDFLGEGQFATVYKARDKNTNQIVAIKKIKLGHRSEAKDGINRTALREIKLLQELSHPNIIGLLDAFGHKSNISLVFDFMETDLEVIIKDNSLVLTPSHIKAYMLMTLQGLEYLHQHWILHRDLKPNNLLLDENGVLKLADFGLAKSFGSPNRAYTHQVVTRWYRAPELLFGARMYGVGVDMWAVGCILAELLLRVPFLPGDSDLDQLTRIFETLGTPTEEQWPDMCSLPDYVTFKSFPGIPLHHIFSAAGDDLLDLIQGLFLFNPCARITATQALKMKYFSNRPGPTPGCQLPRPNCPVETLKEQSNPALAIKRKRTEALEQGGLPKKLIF
Sequence of CDK7/cyclinH1/MNAT1 (P50613 whole entry): as above
Sequence of CDK7/cyclinH1/MNAT1 (P51946 whole entry partner): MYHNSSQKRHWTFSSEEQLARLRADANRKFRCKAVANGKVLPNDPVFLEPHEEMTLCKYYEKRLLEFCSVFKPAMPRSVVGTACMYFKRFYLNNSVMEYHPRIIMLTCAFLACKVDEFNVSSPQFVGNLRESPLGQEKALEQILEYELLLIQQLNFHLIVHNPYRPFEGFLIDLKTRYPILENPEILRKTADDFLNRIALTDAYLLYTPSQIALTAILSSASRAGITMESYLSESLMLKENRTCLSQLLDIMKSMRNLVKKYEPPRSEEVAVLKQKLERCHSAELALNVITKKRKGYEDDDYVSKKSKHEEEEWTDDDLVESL
Sequence of CDK7/cyclinH1/MNAT1 (P51948 whole entry partner): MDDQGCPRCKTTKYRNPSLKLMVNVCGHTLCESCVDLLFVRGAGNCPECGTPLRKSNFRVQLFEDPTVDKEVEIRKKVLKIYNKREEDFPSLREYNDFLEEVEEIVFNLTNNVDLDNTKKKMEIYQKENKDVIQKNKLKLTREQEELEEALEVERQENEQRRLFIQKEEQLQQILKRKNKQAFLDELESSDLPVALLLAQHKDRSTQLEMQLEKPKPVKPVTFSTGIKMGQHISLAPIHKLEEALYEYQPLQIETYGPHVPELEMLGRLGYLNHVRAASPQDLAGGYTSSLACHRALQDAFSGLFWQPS
Sequence of CDK7/CycH/MAT1 (P50613 whole entry): as the sequence (P50613 whole entry) above
Sequence of CDK7/CycH/MAT1 (P51946 whole entry partner): as the sequence (P51946 whole entry partner) above
Sequence of CDK7/CycH/MAT1 (P51948 whole entry partner): as the sequence (P51948 whole entry partner) above
Experimental for CDK7/cyclinH1/MNAT1: Material: CDK7/cyclinH1/MNAT1 (Accession number for CDK7; NP 001790, for cyclinH1; NP 001230, for MNAT1; NP 002422.1) Recombinant Human Full-Length protein, Histidine-tagged CDK7 (MW=43.2 kDa), Histidine-tagged cyclin H1 (MW=42.6 kDa), Histidine-tagged MNAT1 (MW=40.5 kDa), were expressed in insect cells. […] Activity was determined with a final protein concentration at 3.33 μg/mL. Enzyme was stored at a concentration of 0.42 mg/ml in 50 rnM Tris (pH 7.5), 150 mM NaCl, 0.5 mM EDTA, 0.02% Triton X-100, 2 mM DTT, 50% Glycerol.
For CDK7 activity assay, p33 ATP tracers were incubated with purified recombinant specific combination of purified CDK kinases, cyclins and substrates to monitor the enzyme activity. In these assays, individual reactions were carried out in specific conditions describe below with reaction buffer: 20 mM HEPES (pH 7.5), 10 mM MgCl2, 1 mM EGTA, 0.02% Brij 35, 0.02 mg/ml BSA, 0.1 mM Na3VO4, 2 mM DTT. An equal volume of 25% TCA was added to stop the reaction and precipitate the labeled peptides. […] The amount of incorporated isotope was measured using a Perkin Elmer TopCount plate reader. […] IC50 was calculated using Prism software with sigmoidal dose-response curve fitting. […] Reaction was incubated for 2 hours at room temperature and conversion rate of ATP was measured to be 5.5%. […]

In the case of `C=CC(=O)Nc1ccc(C(=O)Nc2cc3cc(c2)Nc2nccc(n2)-c2cccc(c2)OCC/C=C/CN(C)C3)cc1` [CY-16-1], the half-inhibitory concentration (IC50) on CDK7/cyclinH1/MNAT1 is under 15 nM; in the experiment with DMS 114 (Homo sapiens), 29 nM; with NCI-H446 (Homo sapiens), 0.019 µM; with NCI-H209 (Homo sapiens), 30 nM; with NCI-H82 (Homo sapiens), 28 nM; in the experiment on NCI-H69 (Homo sapiens, NCI-H69, 72 h), 0.032 µM. In addition, in the experiment with NCI-H69, the IC50 stood at 0.018 µM. In addition, at CDK7/CycH/MAT1, the “Reversibility of CDK7 inhibition after dialysis” value is on record as “irreversible inhibitor of CDK7”. Moreover, on CDK7, the Kd is under 1 nM.
Turning to `N.N.[Cl][Pt][Cl]` [Cisplatin, reference compound], the IC50 in the experiment with DMS 114 is 5950 nM; in the experiment with NCI-H446, 7.45 µM; in the experiment on NCI-H209, 274 nM; in the experiment with NCI-H82 it was 4510 nM; in the experiment with NCI-H69, 7 µM and 7.7 µM.

The values are drawn from US10456397B2, “Covalent inhibitors of CDK-7” (Newave Pharmaceutical Inc., priority 2015, dated 2019).
